Measured values as given in patent US7572831B2, “Composition containing chalcone” (Angiolab, Inc., priority 2002, dated 2009).

Experiments:
[1] = tested on: rat aortic rings; experiment: Rat aortic ring angiogenesis assay; format: cell-based, Sprague Dawley rats; conditions: day 10; for Microvessel density: control 19.5±1.8
Text: The effect of chalcone or its derivatives on angiogenesis was studied by culturing aortic explants in three-dimensional matrix gels according to the procedure of Kruger and Figg (Clinical Cancer Research 7:1867-1872, 2001). Thoracic aortas were excised from 8-week-old male Sprague Dawley rats and the fibroadipose tissue was removed. The aortas were sectioned into 1-mm-long cross-sections, rinsed with Human Endothelial-SFM (GIBCO), placed on the Matrigel-coated wells, covered with additional 50 ul Matrigel, and allowed to gel for more than 30 min at 37° C., 5% CO2. All the rings were cultured in Human Endothelial-SFM (GIBCO) supplemented with 200 ug/ml of ECGS (Endothelial Cell Growth Supplement, Sigma) as an angiogenesis inducer. Chalcone diluted with ethanol was added to the culture medium at final concentrations of 1 uM and 100 uM. 1% of ethanol only was added to the culture medium as a vehicle control. All assays were performed by using 5 aortic rings per sample. Aortic rings were photographed on day 10. The area of angiogenic sprouting was calculated using Image-Pro Plus software program (Media Cybernetics). Microvessel densities are reported in percent area.

[2] = tested on: experimentally induced comedones; experiment: Comedolysis by EIC (experimentally induced comedones) formation; format: in vivo, New Zealand white rabbits; conditions: topical once a day, 3 weeks
Text: Effects of chalcone on comedolysis were studied using subjects of ten mature New Zealand white rabbits, which were bred to approximately 2 kg of body weight for several weeks. In order to generate EIC, 50% oleic acid in polyethylene glycol was applied to both ears of rabbits for 2 weeks. The experimental agent was applied to the ventral surface near the auditory canal once a day with the tip of a cotton stick. 18 ears of rabbits were divided into three groups, and only one of ethanol-propylene glycol (1:1) (control), 1% chalcone in ethanol-propylene glycol (1:1), or 5% chalcone in ethanol-propylene glycol (1:1) was applied on each groups for 3 weeks. The remaining 2 ears were left untreated. Biopsy specimens were taken at 3 week by punch and specimens were fixed in 10% formalin solution and embedded in paraffin for light microscopic examination. Sections of 5 μm thickness were cut and hematoxylin and eosin stain were performed. Under light microscope, fairly large comedones were formed showing hyperplasia and hyperkeratosis of epithelium in specimen treated with vehicle only. The formation of comedones decreased in specimen treated with 1% or 5% of chalcone.

[3] = tested on: UVB-induced wrinkle formation; experiment: Skin photoaging, UVB-induced wrinkle formation; format: in vivo, albino hairless HOS:HR1 mice; conditions: topical, 15 week
Text: Effects of chalcone on skin photoaging were studied using mouse skin wrinkle induced by UV irradiation. 6-week male albino hairless HOS:HR1 mice were used for wrinkle formation induced by long-term repeated UVB irradiation. Wrinkles were formed according to the modified method described by Bissett et al (Photochem Photobiol 46: 367-378, 1987) The dose was set at 60 mJ per cm^2 for 4 weeks and increased to 120 mJ per cm^2 for 11 weeks. The frequency of irradiation was set at three times per week. In this protocol, wrinkles began to be observed macroscopically in the dorsal region from about 8 week after initiation of irradiation, and deep wrinkles were formed at 12 week. 30 hairless mice were divided into three groups, and only one of ethanol-propylene glycol (7:3) (control), 1% chalcone in ethanol-propylene glycol (7:3), or 5% chalcone in ethanol-propylene glycol (7:3) was applied on each groups for 15 weeks. 100 μl of the experimental agent was applied to the dorsal region three times weekly just after UVB exposure. At 15 week after initiation of repeated UVB irradiation, each hairless mouse was anesthetized, and the degree of wrinkle formation was evaluated according to Table 3. […] [table]

[4] = tested on: TPA-induced ear edema; experiment: TPA-induced ear edema model; format: in vivo, ICR mouse; conditions: FIG. 7

Q: What does the source list for `O=C(/C=C/c1ccccc1)c1ccccc1` [Chalcone]?
A: Microvessel density ([1]; 1 uM): 18.5±1.2 percent area; Microvessel density ([1]; 100 uM): 1.7±0.1 percent area; inhibition at 1 µM ([1]; Rattus norvegicus, 240 h, 1 uM, read-out: Inhibition of microvessel formation compared to control): 5.1%; inhibition at 100 µM ([1]; Rattus norvegicus, 240 h, 100 uM, read-out: Inhibition of microvessel formation compared to control): 91.3%; Formation of comedones ([2]; 1% chalcone in ethanol-propylene glycol (1:1)): decreased; Formation of comedones ([2]; 5% chalcone in ethanol-propylene glycol (1:1)): decreased; UVB-induced wrinkle formation vs vehicle-treated group ([3]; 1% chalcone in ethanol-propylene glycol (7:3)): significantly inhibited; UVB-induced wrinkle formation vs vehicle-treated group ([3]; 5% chalcone in ethanol-propylene glycol (7:3)): significantly inhibited; Dose dependence of anti-inflammatory activity [4]: dose dependent
